Converted amounts (≈) assume the structure as drawn.
Assays:
[1] = tested on: Staphyiococcus aureus CMCC 25923; assay: Antibacterial MIC, serial dilution; assay type: cell-based, Staphylococcus aureus; details: Staphylococcus aureus, CMCC25923; S. aureus CMCC 25923, 24 h, 37 °C; read-out: MIC
Protocol: (§1) Test bacteria were grown to mid-log phase in Mueller–Hinton broth (MHB) or Tryptone Soya Broth (TSB) and diluted 1000-fold in the same medium. Bacteria (10^5 CFU/mL) were inoculated into MHB or TSB and dispensed at 0.2 ml/well into a 96-well microtiter plate. As positive controls, gatifloxacin, moxifloxacin, norfloxacin, oxacillin, and penicillin were used. […] Bacterial growth was determined by measuring the absorption at 630 nm using a microplate reader. All experiments were carried out three times.
(§2) The evaluation of antibacterial activity of all compounds (3a–3j and 6a–6k) was performed by a serial dilution method to determine the MIC against a panel of pathogens comprising five Gram-positive strains (S. aureus (CMCC(B) 26003 and CMCC 25923), Streptococcus mutans BNCC 336931, Enterococcus faecalis CMCC 29212, and Bacillus subtilis CMCC 63501), four Gram-negative strains (E. coli (CMCC 25922 and CMCC 44568) and P. aeruginosa (CMCC 27853 and CMCC 10104)), as well as three methicillin-resistant clinical isolates (S. aureus ATCC 43300 and ATCC 33591, P. aeruginosa ATCC BAA-2111). The results are described in Tables 1 and 2. Gatifloxacin, moxifloxacin, norfloxacin, oxacillin, and penicillin were used as positive controls.

[2] = tested on: Bacillus subtilis CMCC 63501; assay: Antibacterial MIC, serial dilution; assay type: cell-based; details: Bacillus subtilis, CMCC63501; B. subtilis CMCC 63501, 24 h, 37 °C; read-out: MIC
Protocol: as §1, §2

[3] = tested on: Enterococcus faecalis CMCC 29212; assay: Antibacterial MIC, serial dilution; assay type: cell-based; details: Enterococcus faecalis, CMCC29212; E. faecalis CMCC 29212, 24 h, 37 °C; read-out: MIC
Protocol: as §1, §2

[4] = tested on: Escherichia coli CMCC 25922; assay: Antibacterial MIC, serial dilution; assay type: cell-based; details: Escherichia coli, CMCC25922; E. coli CMCC 25922, 24 h, 37 °C; read-out: MIC
Protocol: as §1, §2

[5] = tested on: Escherichia coli CMCC 44568; assay: Antibacterial MIC, serial dilution; assay type: cell-based; details: Escherichia coli, CMCC44568; E. coli CMCC 44568, 24 h, 37 °C; read-out: MIC
Protocol: as §1, §2

[6] = tested on: Pseudomonas aeruginosa CMCC 10104; assay: Antibacterial MIC, serial dilution; assay type: cell-based; details: Pseudomonas aeruginosa, CMCC10104; P. aeruginosa CMCC 10104, 24 h, 37 °C; read-out: MIC
Protocol: as §1, §2

[7] = tested on: Pseudomonas aeruginosa CMCC 27853; assay: Antibacterial MIC, serial dilution; assay type: cell-based; details: Pseudomonas aeruginosa, CMCC27853; P. aeruginosa CMCC 27853, 24 h, 37 °C; read-out: MIC
Protocol: as §1, §2

[8] = tested on: Staphylococcus aureus CMCC(B)26003; assay: Antibacterial MIC, serial dilution; assay type: cell-based; details: Staphylococcus aureus; S. aureus CMCC(B)26003, 24 h, 37 °C; read-out: MIC
Protocol: as §1, §2

[9] = tested on: Streptococcus mutans BNCC 336931; assay: Antibacterial MIC, serial dilution; assay type: cell-based; details: Streptococcus mutans, BNCC336931; S. mutans BNCC 336931, 24 h, 37 °C; read-out: MIC
Protocol: as §1, §2

[10] = tested on: tested bacterial strains; assay: Antibacterial MIC, panel of tested bacterial strains; assay type: cell-based; details: against almost all of the tested strains
Protocol: as §1, §2

[11] = tested on: Staphylococcus aureus ATCC 33591; assay: Antibacterial MIC, multidrug-resistant clinical isolate; assay type: cell-based; details: Staphylococcus aureus, ATCC33591; multidrug-resistant S. aureus ATCC 33591; read-out: MIC
Protocol: as §1, §2

[12] = tested on: Staphylococcus aureus ATCC 43300; assay: as above; assay type: cell-based; details: Staphylococcus aureus, ATCC43300; multidrug-resistant S. aureus ATCC 43300; read-out: MIC
Protocol: as §1, §2

[13] = tested on: A549; assay: Cytotoxicity, CCK-8 assay; assay type: cell-based; details: Homo sapiens, A549 lung cancer cells, 48 h
Protocol: (§3) A lung cancer cell line (A549), gastric cancer cell line (SGC7901) and human hepatocytes (L02) were used to test the anticancer activity and cytotoxicity of the new compounds. 5-Fluorouracil (5-FU) was used as the positive control against cancer cell lines. The A549, SGC7901 and L02 cells were grown in Dulbecco’s modified Eagle’s medium (DMEM) supplemented with 10% foetal bovine serum (FBS) and antibiotics (100 U/mL penicillin-streptomycin). Cells at 80–90% confluence were split by trypsin (0.25% in PBS; pH 7.4), and the medium was changed at 24 h intervals. The cells were cultured at 37 °C in a 5% CO2 incubator. The cells were passaged three times, then approximately 1 × 10^4 cells were seeded into each well of a 96-well plate and allowed to incubate to allow attachment of the cells to the surface. After 24 h, the medium was replaced with DMEM supplemented with 10% FBS containing various concentrations (0.1, 0.3, 1, 3, 10, and 30 μg/mL) of test compounds. Each concentration was tested in triplicate. After 48 h treatment, 20 µL of CCK-8 solution was added to each well and the optical density measured at 450 nm after 3 h using a microplate reader. The IC50 values were defined as the concentrations inhibiting 50% of cell growth.

[14] = tested on: SGC7901; assay: Cytotoxicity, CCK-8 assay; assay type: cell-based; details: Homo sapiens, SGC-7901, SGC7901 gastric cancer cells, 48 h
Protocol: as §3

[15] = tested on: L02; assay: Cytotoxicity, CCK-8 assay, normal cell line; assay type: cell-based; details: L02 normal human hepatocytes, 48 h
Protocol: as §3

[16] = tested on: Pseudomonas aeruginosa ATCC BAA-2111; assay: Antibacterial MIC, multidrug-resistant clinical isolate; assay type: cell-based; details: ATCCBAA2111, multidrug-resistant P. aeruginosa ATCC BAA-2111
Protocol: as §1, §2

Row | SMILES | MIC [11] [µg/mL] | MIC [12] [µg/mL] | MIC [16] [µg/mL] | MIC [1] [µg/mL] | MIC [2] [µg/mL] | MIC [3] [µg/mL] | MIC [4] [µg/mL] | MIC [5] [µg/mL] | MIC [6] [µg/mL] | MIC [7] [µg/mL] | MIC [8] [µg/mL] | MIC [9] [µg/mL] | MIC [10] [µg/mL] | melting point [°C] | IC50 [13] [µg/mL] | IC50 [14] [µg/mL] | IC50 [15] [µg/mL]
1 | N=C(N)NN=Cc1ccc(C#CC#Cc2ccc(F)cc2)cc1 [Compound 6d, 2-(4-((4-Fluorophenyl)buta-1,3-diyn-1-yl)benzylidene)hydrazine-1-carboximidamide] | – | – | – | 4 (≈ 13.1 µM) | > 128 | 128 (≈ 421 µM) | > 128 | > 128 | > 128 | > 128 | 64 (≈ 210 µM) | > 128 | ≥ 128 | 206 to 210 | – | – | –
2 | N=C(N)NN=Cc1ccc(C#CC#Cc2ccc(Cl)cc2)cc1 [Compound 6g, 2-(4-((4-Chlorophenyl)buta-1,3-diyn-1-yl)benzylidene)hydrazine-1-carboximidamide] | – | – | – | > 128 | > 128 | 128 (≈ 399 µM) | 128 (≈ 399 µM) | 128 (≈ 399 µM) | > 128 | > 128 | > 128 | > 128 | ≥ 128 | 202 to 205 | – | – | –
3 | N=C(N)NN=Cc1ccc(C#CC#Cc2cccc(Br)c2)cc1 [Compound 6i, 2-(4-((3-Bromophenyl)buta-1,3-diyn-1-yl)benzylidene)hydrazine-1-carboximidamide] | – | – | – | 128 (≈ 350 µM) | 2 (≈ 5.48 µM) | 0.5 (≈ 1.37 µM) | 64 (≈ 175 µM) | 128 (≈ 350 µM) | 128 (≈ 350 µM) | > 128 | 2 (≈ 5.48 µM) | 0.5 (≈ 1.37 µM) | ≥ 128 | 196 to 198 | – | – | –
4 | Cc1cccc(C#CC#Cc2ccc(C=NNC(=N)N)cc2)c1 [Compound 6k, 2-(4-(m-Tolylbuta-1,3-diyn-1-yl)benzylidene)hydrazine-1-carboximidamide] | – | – | – | 32 (≈ 107 µM) | 2 (≈ 6.66 µM) | 0.5 (≈ 1.66 µM) | 4 (≈ 13.3 µM) | 128 (≈ 426 µM) | 4 (≈ 13.3 µM) | > 128 | 1 (≈ 3.33 µM) | 0.5 (≈ 1.66 µM) | – | 202 to 204 | 3.58 (≈ 11.9 µM) | 0.55 (≈ 1.83 µM) | 14.8 (≈ 49.2 µM)

The next lines start with results.

Row | MIC [11] [µg/mL] | MIC [12] [µg/mL] | MIC [16] [µg/mL] | SMILES | MIC [1] [µg/mL] | MIC [2] [µg/mL] | MIC [3] [µg/mL] | MIC [4] [µg/mL] | MIC [5] [µg/mL] | MIC [6] [µg/mL] | MIC [7] [µg/mL] | MIC [8] [µg/mL] | MIC [9] [µg/mL] | MIC [10] [µg/mL] | melting point [°C] | IC50 [13] [µg/mL] | IC50 [14] [µg/mL] | IC50 [15] [µg/mL]
5 | 0.5 (≈ 1.56 µM) | 8 (≈ 24.9 µM) | – | N=C(N)NN=Cc1ccc(C#CC#Cc2ccccc2Cl)cc1 [Compound 6e, 2-(4-((2-Chlorophenyl)buta-1,3-diyn-1-yl)benzylidene)hydrazine-1-carboximidamide] | 128 (≈ 399 µM) | 4 (≈ 12.5 µM) | 0.5 (≈ 1.56 µM) | 8 (≈ 24.9 µM) | 64 (≈ 200 µM) | 4 (≈ 12.5 µM) | > 128 | 0.25 (≈ 0.779 µM) | 1 (≈ 3.12 µM) | – | 207 to 210 | 3.62 (≈ 11.3 µM) | 1.48 (≈ 4.61 µM) | 14.8 (≈ 46.1 µM)
6 | 0.25 (≈ 0.666 µM) | 0.5 (≈ 1.33 µM) | 1 (≈ 2.66 µM) | COc1c(N2CCNC(C)C2)c(F)cc2c(=O)c(C(=O)O)cn(C3CC3)c12 (stereo not shown) [Gatifloxacin, reference compound] | 0.125 (≈ 0.333 µM) | 2 (≈ 5.33 µM) | 1 (≈ 2.66 µM) | 0.125 (≈ 0.333 µM) | 0.125 (≈ 0.333 µM) | 2 (≈ 5.33 µM) | 2 (≈ 5.33 µM) | 0.125 (≈ 0.333 µM) | 1 (≈ 2.66 µM) | – | – | – | – | –
